In patent US8263598B2, “Substituted sulfonamide compounds” (Gruenenthal GmbH, priority 2008, dated 2012):

What was measured:
[1] = target: T1, human B1R receptor (hB1R) (Homo sapiens, UniProt P46663); test: FLIPR Ca2+ assay on human bradykinin 1 receptor (CHO K1 hB1R cells); type: cell-based; conditions: test substance 10 μM; CHO K1 cells with human B1R gene; agonist Lys-Des-Arg9-bradykinin 0.5 nM; compared to maximum achievable inhibition
T1 construct: host or cells: CHO K1 cells
T1 sequence (P46663 1-353): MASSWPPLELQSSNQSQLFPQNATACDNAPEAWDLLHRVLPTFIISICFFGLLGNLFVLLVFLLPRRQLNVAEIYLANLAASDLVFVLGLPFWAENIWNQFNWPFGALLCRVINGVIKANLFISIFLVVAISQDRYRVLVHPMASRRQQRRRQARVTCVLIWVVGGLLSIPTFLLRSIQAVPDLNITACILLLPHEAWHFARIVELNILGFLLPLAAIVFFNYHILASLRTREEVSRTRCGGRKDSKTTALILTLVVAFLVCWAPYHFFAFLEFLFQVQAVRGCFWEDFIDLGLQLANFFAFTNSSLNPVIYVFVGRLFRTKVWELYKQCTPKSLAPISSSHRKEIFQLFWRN
Method in brief: (§1)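 Values are percent inhibition of agonist-evoked Ca²⁺ influx, measured by Fluo-4 fluorescence peak in FLIPR relative to maximum achievable inhibition. Compound at 10 μM was preincubated 10 min on B1R-transfected CHO K1 cells before challenge with 0.5 nM Lys-Des-Arg9-bradykinin (human) or 100 nM Des-Arg9-bradykinin (rat).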

[2] = target: T2, B1R receptor of rats (rB1R) (Rattus norvegicus, UniProt P97583); test: FLIPR Ca2+ assay on rat bradykinin 1 receptor (CHO K1 rB1R cells); type: cell-based; conditions: test substance 10 μM; CHO K1 cells with B1R gene of rats; agonist Des-Arg9-bradykinin 100 nM; compared to maximum achievable inhibition
T2 construct: host or cells: CHO K1 cells
T2 sequence (P97583 1-337): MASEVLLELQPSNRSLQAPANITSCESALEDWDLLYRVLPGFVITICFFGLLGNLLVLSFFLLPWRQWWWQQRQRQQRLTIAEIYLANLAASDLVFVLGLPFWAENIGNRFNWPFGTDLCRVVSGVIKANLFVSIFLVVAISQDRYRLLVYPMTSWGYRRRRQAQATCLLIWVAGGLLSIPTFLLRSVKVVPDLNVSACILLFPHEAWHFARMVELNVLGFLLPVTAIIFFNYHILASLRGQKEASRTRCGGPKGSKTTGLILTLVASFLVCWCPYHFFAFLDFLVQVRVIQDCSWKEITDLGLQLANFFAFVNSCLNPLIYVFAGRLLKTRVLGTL
Method in brief: as §1

SMILES | inhibition at 10 µM [1] [%] | inhibition at 10 µM [2] [%]
CCC1c2cccn2CCN1C(=O)COCCN(CC(C)C)S(=O)(=O)c1c(C)cc(OC)c(C)c1C (stereo not drawn) [Example 100, N-(2-(2-(1-ethyl-3,4-dihydropyrrolo[1,2-a]pyrazin-2(1H)-yl)-2-oxoethoxy)ethyl)-N-isobutyl-4-methoxy-2,3,6-trimethylbenzenesulfonamide] | 98 | 103
COc1cc(C)c(S(=O)(=O)N(C)CCOCC(=O)N2CCn3c(CN(C)C)ccc3C2c2ccccc2)c(C)c1C (stereo not drawn) [Example 1, N-(2-(2-(6-((dimethylamino)methyl)-1-phenyl-3,4-dihydropyrrolo[1,2-a]pyrazin-2(1H)-yl)-2-oxoethoxy)ethyl)-4-methoxy-N,2,3,6-tetramethylbenzene-sulfonamide] | 89 | 58
CCCC1c2cccn2CCN1C(=O)COCCN(Cc1ccccc1)S(=O)(=O)c1c(C)cc(OC)c(C)c1C (stereo not drawn) [Example 123, N-benzyl-4-methoxy-2,3,6-trimethyl-N-(2-(2-oxo-2-(1-propyl-3,4-dihydropyrrolo[1,2-a]pyrazin-2(1H)-yl)ethoxy)ethyl)benzenesulfonamide] | 41 | 86
COc1cc(C)c(S(=O)(=O)N(CCOCC(=O)N2CCn3c(CN(C)C)ccc3C2c2ccccc2)CC(C)C)c(C)c1C (stereo not drawn) [Example 91, N-(2-(2-(6-((dimethylamino)methyl)-1-phenyl-3,4-dihydropyrrolo[1,2-a]pyrazin-2(1H)-yl)-2-oxoethoxy)ethyl)-N-isobutyl-4-methoxy-2,3,6-trimethylbenzene-sulfonamide] | 103 | 103
COc1cc(C)c(S(=O)(=O)N(CCOCC(=O)N2CCn3c(CN(C)C)ccc3C2c2cccs2)Cc2ccccc2)c(C)c1C (stereo not drawn) [Example 121, N-benzyl-N-(2-(2-(6-((dimethylamino)methyl)-1-(thiophen-2-yl)-3,4-dihydropyrrolo[1,2-a]pyrazin-2(1H)-yl)-2-oxoethoxy)ethyl)-4-methoxy-2,3,6-trimethylbenzene-sulfonamide] | 101 | 102
COc1cc(C)c(S(=O)(=O)N(CCOCC(=O)N2CCn3c(CN(C)C)ccc3C2CCc2ccccc2)CC(C)C)c(C)c1C (stereo not drawn) [Example 96, N-(2-(2-(6-((dimethylamino)methyl)-1-phenethyl-3,4-dihydropyrrolo[1,2-a]pyrazin-2(1H)-yl)-2-oxoethoxy)ethyl)-N-isobutyl-4-methoxy-2,3,6-trimethyl-benzenesulfonamide] | 102 | 101
COc1cccc(C2c3cccn3CCN2C(=O)COCCN(C)S(=O)(=O)c2c(C)cc(OC)c(C)c2C)c1 (stereo not drawn) [Example 89, 4-methoxy-N-(2-(2-(1-(3-methoxyphenyl)-3,4-dihydropyrrolo[1,2-a]pyrazin-2(1H)-yl)-2-oxoethoxy)ethyl)-N,2,3,6-tetramethylbenzenesulfonamide] | 100 | 98
COc1c(C)cc(S(=O)(=O)N(C)CCOCC(=O)N2CCn3cccc3C2c2ccccc2)c(C)c1C (stereo not drawn) [Example 32, 4-methoxy-N,2,3,5-tetramethyl-N-(2-(2-oxo-2-(1-phenyl-3,4-dihydropyrrolo[1,2-a]pyrazin-2(1H)-yl)ethoxy)ethyl)benzenesulfonamide] | 78 | 99
COc1c(C)cc(S(=O)(=O)N(C)CCOCC(=O)N2CCn3cccc3C2C(C)(C)C)c(C)c1C (stereo not drawn) [Example 27, N-(2-(2-(1-tert-butyl-3,4-dihydropyrrolo[1,2-a]pyrazin-2(1H)-yl)-2-oxoethoxy)ethyl)-4-methoxy-N,2,3,5-tetramethylbenzenesulfonamide] | 95 | 98
COc1cc(C)c(S(=O)(=O)N(C)CCOCC(=O)N2CCn3c(CN(C)C)ccc3C2Cc2ccccc2)c(C)c1C (stereo not drawn) [Example 151, N-(2-(2-(1-benzyl-6-((dimethylamino)methyl)-3,4-dihydropyrrolo[1,2-a]pyrazin-2(1H)-yl)-2-oxoethoxy)ethyl)-4-methoxy-N,2,3,6-tetramethylbenzene-sulfonamide] | 102 | 103
CCCCC1c2ccc(CN(C)C)n2CCN1C(=O)COCCN(C)S(=O)(=O)c1cc(C)c(OC)c(C)c1C (stereo not drawn) [Example 111, N-(2-(2-(1-butyl-6-((dimethylamino)methyl)-3,4-dihydropyrrolo[1,2-a]pyrazin-2(1H)-yl)-2-oxoethoxy)ethyl)-4-methoxy-N,2,3,5-tetramethylbenzene-sulfonamide] | 100 | 100
CCC1c2cccn2CCN1C(=O)COCCN(Cc1ccccc1)S(=O)(=O)c1c(C)cc(OC)cc1C (stereo not drawn) [Example 132, N-benzyl-N-(2-(2-(1-ethyl-3,4-dihydropyrrolo[1,2-a]pyrazin-2(1H)-yl)-2-oxoethoxy)ethyl)-4-methoxy-2,6-dimethylbenzenesulfonamide] | 100 | 102
COc1cc(C)c(S(=O)(=O)N(C)CCOCC(=O)N2CCn3cccc3C2C(C)C)c(C)c1C (stereo not drawn) [Example 153, N-(2-(2-(1-isopropyl-3,4-dihydropyrrolo[1,2-a]pyrazin-2(1H)-yl)-2-oxoethoxy)ethyl)-4-methoxy-N,2,3,6-tetramethylbenzenesulfonamide] | 103 | 103
COc1cc(C)c(S(=O)(=O)N(CCOCC(=O)N2CCn3c(CN(C)C)ccc3C2CCc2ccccc2)Cc2ccccc2)c(C)c1C (stereo not drawn) [Example 119, N-benzyl-N-(2-(2-(6-((dimethylamino)methyl)-1-phenethyl-3,4-dihydropyrrolo-[1,2-a]pyrazin-2(1H)-yl)-2-oxoethoxy)ethyl)-4-methoxy-2,3,6-trimethylbenzene-sulfonamide] | 52 | 54

The next lines start with the values.

inhibition at 10 µM [1] [%] | inhibition at 10 µM [2] [%] | SMILES
106 | 104 | COc1cc(C)c(S(=O)(=O)N(C)CCOCC(=O)N2CCn3cc(CN4CCCCC4)nc3C2)c(C)c1 [Example 2, 4-methoxy-N,2,6-trimethyl-N-(2-(2-oxo-2-(2-(piperidin-1-ylmethyl)-5,6-dihydroimidazo[1,2-a]pyrazin-7(8H)-yl)ethoxy)ethyl)benzenesulfonamide]
101 | 99 | COc1cc(C)c(S(=O)(=O)N(C)CCOCC(=O)N2CCn3c(CN4CCOCC4)ccc3C2)c(C)c1 [Example 7, 4-methoxy-N,2,6-trimethyl-N-(2-(2-(6-(morpholinomethyl)-3,4-dihydropyrrolo[1,2-a]pyrazin-2(1H)-yl)-2-oxoethoxy)ethyl)benzenesulfonamide]
104 | 102 | COc1cc(C)c(S(=O)(=O)N(C)CCOCC(=O)N2CCn3cccc3C2C(C)C)c(C)c1 (stereo not drawn) [Example 137, N-(2-(2-(1-isopropyl-3,4-dihydropyrrolo[1,2-a]pyrazin-2(1H)-yl)-2-oxoethoxy)ethyl)-4-methoxy-N,2,6-trimethylbenzenesulfonamide]
100 | 99 | COc1cc(C)c(S(=O)(=O)N(C)CCOCC(=O)N2CCn3c(nc(CN4CCCCC4)c3Cl)C2)c(C)c1 [Example 6, N-(2-(2-(3-chloro-2-(piperidin-1-ylmethyl)-5,6-dihydroimidazo[1,2-a]pyrazin-7(8H)-yl)-2-oxoethoxy)ethyl)-4-methoxy-N,2,6-trimethylbenzenesulfonamide]
101 | 103 | COc1cc(C)c(S(=O)(=O)N(CCOCC(=O)N2CCn3c(CN4CCCCC4)ccc3C2c2ccccc2)Cc2ccccc2)c(C)c1 (stereo not drawn) [Example 128, N-benzyl-4-methoxy-2,6-dimethyl-N-(2-(2-oxo-2-(1-phenyl-6-(piperidin-1-ylmethyl)-3,4-dihydropyrrolo[1,2-a]pyrazin-2(1H)-yl)ethoxy)ethyl)benzene-sulfonamide]
31 | 100 | COc1cc(C)c(S(=O)(=O)N(CCOCC(=O)N2CCn3ccnc3C2)CC(C)C)c(C)c1C [Example 21, N-(2-(2-(5,6-dihydroimidazo[1,2-a]pyrazin-7(8H)-yl)-2-oxoethoxy)ethyl)-N-isobutyl-4-methoxy-2,3,6-trimethylbenzenesulfonamide]
100 | 100 | COc1cc(C)c(S(=O)(=O)N(C)CCOCC(=O)N2CCn3cc(Cc4ccncc4)nc3C2)c(C)c1 [Example 179, 4-Methoxy-N,2,6-trimethyl-N-(2-(2-oxo-2-(2-(pyridin-4-ylmethyl)-5,6-dihydroimidazo[1,2-a]pyrazin-7(8H)-yl)ethoxy)ethyl)benzenesulfonamide]
